{"source": "patent US8309103B2", "about": "“Association of fluconazole-tinidazole for the treatment of vaginal infections, its composition, preparation process and usage” (Alparis, S.A. DE C.V., priority 2004, dated 2012)", "origin": "cited, not measured here", "key": {"[1]": {"test_system": "Bacterial Vaginosis (Gardnerella vaginallis)"}, "Trichomonas vaginalis": {"test_system": "Trichomonas vaginalis", "conditions": "2 grams in an only dose, sexual partner also involved"}, "[2]": {"conditions": "in vivo, po"}, "vaginal candidiasis": {"test_system": "vaginal candidiasis", "conditions": "one dose of 150 mg; 1,017 patients with vaginal candidiasis"}}, "note": "Read-outs that look alike come from different tables or passages of the source.", "data": [{"smiles": "Cc1ncc([N+](=O)[O-])n1CC(C)O", "note": "(centres unmarked) [secnidazole]", "values": [{"measurement": "Share of the dose taken excreted (essentially urinary)", "setting": "in 120 hours", "value": 50, "unit": "%"}, {"measurement": "Average plasmatic life", "setting": "oral, one 2 g dose", "value": "about 25 hours"}, {"measurement": "Time at which the highest seric rates are obtained", "setting": "oral, one 2 g dose", "value": "third"}]}, {"smiles": "CCS(=O)(=O)CCn1c([N+](=O)[O-])cnc1C", "note": "[tinidazole]", "values": [{"measurement": "Curative rate", "setting": "[1]; an only dose of 2 g tinidazole", "value": 92, "unit": "%"}, {"measurement": "Curative rate", "setting": "[1]; same amount (2 g) in a two-day scheme, other researchers", "value": 51, "unit": "%"}]}, {"smiles": "Cc1ncc([N+](=O)[O-])n1CCO", "note": "[metronidazole]", "values": [{"measurement": "Efficacy", "setting": "Trichomonas vaginalis", "value": "up to 85%"}]}, {"smiles": "OC(Cn1cncn1)(Cn1cncn1)c1ccc(F)cc1F", "note": "[fluconazole]", "values": [{"measurement": "Relationship between plasma and the vaginal tissue", "setting": "[2]", "value": "0.94-1.1"}, {"measurement": "Patients in whom well received and effective", "setting": "vaginal candidiasis", "value": 91, "unit": "%"}]}]}
